Each block holds one substance with its values, some of them ahead of it.
How the values were obtained:
[1] = Chain conformation / helicity by circular dichroism (CD) spectroscopy; format: physicochemical; conditions: 20° C.
Procedure: For M60 (SEQ ID NO: 1), no data are presented below 204 nm due to solvent absorption that prohibits data collection. 31 found to be 85% α-helical. All CD spectra recorded at 0.5 mg/ml, 20° C. Figure discloses “C^H60” as SEQ ID NO: 2.
(§1) FIGS. 7A and 7B show CD Spectra and heating curves of exemplary OEG-Hcy derivatives.
Heating or cooling rate: 1° C./min, transmittance recorded at 500 nm. […] (label: 20° C.*).
All data were recorded in H2O at 0.5 mg/mL, 20° C. For 5b no data were recorded below 198 nm due to sulfoxide absorption.

[2] = Solubility in water
[3] = Cloud point temperature (Tcp) by transmittance while heating; format: physicochemical; conditions: for Tcp (° C.): polymer 3.0 mg/mL in H2O, heated 1° C./min, temperature of 50% transmittance at 500 nm, —a = no Tcp detected, fully soluble 20 to 80° C., NA^b = insoluble in H2O down to 5° C.
Procedure: as §1
The incorporation of precise side-chain structural modifications, enabled systematic study of the effects of different functionalities on the properties of the materials. […] Cloud point temperatures (Tcp) were determined at 50% transmittance by monitoring solution transmittance as a function of temperature, and were used to approximate the equilibrium LCST values. Since chain length variation and polymer concentration are well known to affect Tcp values, all samples were identical in length, being prepared from the same stock of M60 (SEQ ID NO: 1).

Substance: Poly(L-methionine)60 [Sample M60, reference compound]
- chain conformation ([1]; CD in THF, 0.5 mg/ml): helical
- water solubility (in words) [2]: water-insoluble

- Tcp (° C.) [3]: 41 °C
Substance: Poly(S-(2-(((2-methoxyethoxy)carbonyl)oxy)-4,7,10,13-tetraoxatetradecyl)-L-homocysteine) [Sample 3b]

Substance: Poly(S-(2-acetoxy-4,7,10,13-tetraoxatetradecyl)-L-homocysteine) [Sample 3a]
- Tcp (° C.) [3]: 39 °C

- Tcp / LCST in water, present or not [3]: neither polymer has a LCST
- chain conformation ([1]; CD in water, 0.5 mg/mL): α-helical conformation
- α-helical (%) ([1]; CD in water, 0.5 mg/mL): 86%
- water solubility (in words) [2]: good solubility
Substance: Poly(S-(2-hydroxy-4,7-dioxaoctyl)-L-homocysteine sulfone) [Sample 5b]

- Tcp / LCST in water, present or not [3]: neither polymer has a LCST
- chain conformation ([1]; CD in water, 0.5 mg/mL): disordered conformation
- water solubility (in words) [2]: good solubility
Substance: Poly(S-(2-hydroxy-4,7-dioxaoctyl)-L-homocysteine sulfoxide) [Sample 5a]

Substance: Poly(S-(3-(2-acetoxyethoxy)-2-hydroxypropyl)-L-homocysteine) [Sample 2c]
- water solubility (in words) [2]: water insoluble

Substance: Poly(S-(3-(2-hydroxyethoxy)-2-hydroxypropyl)-L-homocysteine) [Sample 2a]
- water solubility (in words) [2]: fully water soluble

Substance: Poly(S-(3-(2-methoxyethoxy)-2-hydroxypropyl)-DL-homocysteine) [rac-2b]
- water solubility (in words) [2]: fully water soluble
